{
  "source": "patent EP2660245A1",
  "about": "“PHYSIOLOGICALLY ACTIVE BIS-DIALKYLAMIDES OF PHOSPHORYL-SUBSTITUTED 1,4-DICARBOXYLIC ACIDS AND METHOD FOR PRODUCING SAME” (Federalnoe Gosudarstvennoe Bydzhetnoe Uchrezhdenie Nauki …, priority 2010, dated 2012)",
  "key": {"[1]": {"tested_on": "rat cortical synaptosomes", "test": "glutamate-induced 45Ca2+ uptake into rat cortical synaptosomes (P2-fraction)", "assay_type": "cell-based", "settings": "for activity at 100 µM / IC50: Rattus norvegicus, glutamate-stimulated; for activity at 100 µM / ^45Ca^2+ uptake (% vs. control): 5 min; for activity at 100 µM: compound at 100 µM, synaptosomes of newborn Wistar rats, 5 minutes at 37°C, control = 100%, read-out: ^45Ca^2+ uptake (% vs. control); for IC50: concentration at which 50% inhibition of calcium uptake takes place, four different concentrations; for ^45Ca^2+ uptake (% vs. control): 100 µM", "text": "Neuroprotective action of the synthesized compounds was studied in P2-fraction of the rat brain cortex synaptosomes as an in vitro convenient model for evaluation of the ability of various compounds to influence calcium uptake into the nerve endings. In the present invention, the applicant used the method of detecting the uptake of ^45Ca^2+ into rat cortical synaptosomes when stimulated with glutamic acid.\nSynaptosomes were obtained from the cerebral cortex of newborn Wistar rats (9-10 days) according to Hayosh's standard procedure [Hajos F.// Brain Res., 1975, Vol.93, No 3, pp. 485-489]. The brain was homogenized (glass-teflon) in 10 volumes of 0.32 M chilled sucrose (900 rpm). The homogenate was centrifuged for 10 minutes at 1500 g. The resulting supernatant was centrifuged for 20 minutes at 10000 g. To accumulate the radioactive label, the P2-synaptosomal fraction was suspended in incubation buffer A (132 mM NaCl, 5 mM KCl, 5 mM HEPES, 10 mM glucose, pH 7.4 (protein concentration of 1.5-2 mg/ml)). The final concentration of Ca^2+ was 1.25 mM (1.4 µCi/ml). […] glutamate was used to stimulate the uptake of ^45Ca^2+ in synaptosomes. After 5 minutes of the incubation with glutamate at 37°C, the uptake of ^45Ca^2+ was stopped by filtration through GF/B filters (Whatman, England), washing three times with cold buffer B (145 mM KCl, 10 mM Tris, 5.4 mM Trilon B, pH 7.4) [L.N. Petrova, S.O. Bachurin // Bull. Exp. Biol. Med., 2006., Vol. 142, No 7, pp.51-54]. The samples were analyzed by liquid scintillation beta analyzer (Russia). All tests were performed in three parallel replications in 2-3 independent experiments. The amount of ^45Ca^2+ uptaced into synaptosomes was determined by the difference in the content of the label in the glutamate-induced uptake into synaptosomes and uptake into synaptosomes without agonist, and expressed as percentages of the control (control = 100%).\nSpecific uptake of ^45Ca^2+ was calculated according to the following formula: K(43/21) = [(Ca4-Ca3)/(Ca2-Ca1)]⋅100%, [formula] wherein Ca1 is uptake of ^45Ca^2+ in the control (without glutamate and a test compound), Ca2 is uptake of ^45Ca^2+ in the presence of glutamate, Ca3 is uptake of ^45Ca^2+ in the presence of a test compound (without glutamate), Ca4 is uptake of ^45Ca^2+ in the presence of glutamate and a test compound. Statistical analysis was performed according to Student's test.\nTesting of the compounds was performed at a concentration of 100 µM. Compounds 1-9 which have an inhibitory effect on the ^45Ca^2+ uptake into rat cortical synaptosomes were examined in detail at four different concentrations to determine the IC50 value (concentration of a compound at which 50% inhibition of calcium uptake takes place)."}, "[2]": {"test": "acute toxicity (LD50) according to the standard method", "settings": "in vivo"}},
  "data": [
    {"molecule": "CCN(CC)C(=O)CP(=O)(c1ccccc1)c1ccccc1", "note": "[Compound 17, N,N-Diethylamide of 2-(diphenylphosphinoyl)acetic acid, reference compound]", "values": [
      {"measurement": "activity at 100 µM", "setting": "[1]", "value": 95.4, "unit": "%"}
    ]},
    {"molecule": "CCCCN(CCCC)C(=O)CC(C(=O)N(CCCC)CCCC)P(=O)(CCCC)CCCC", "note": "(centres unmarked) [Compound 7, N^1,N^1,N^4,N^4-tetrabutyldiamide of 2-(di-n-butylphosphinoyl)succinic acid]", "values": [
      {"measurement": "activity at 100 µM", "setting": "[1]", "value": 0, "unit": "%"},
      {"measurement": "IC50", "setting": "[1]", "value": 44.7, "unit": "µM"},
      {"measurement": "LD50", "setting": "[2]", "value": "> 100", "unit": "mg/kg"}
    ]},
    {"molecule": "CCCCN(CCCC)C(=O)CC(C(=O)N(CCCC)CCCC)P(=O)(c1cc(C)ccc1C)c1cc(C)ccc1C", "note": "(centres unmarked) [Compound 3, N^1,N^1,N^4,N^4-tetrabutyldiamide of 2-[bis(2,5-dimethylphenyl)-phosphinoyl]succinic acid]", "values": [
      {"measurement": "activity at 100 µM", "setting": "[1]", "value": "7.7 ± 6.4", "unit": "%"},
      {"measurement": "IC50", "setting": "[1]", "value": 18.6, "unit": "µM"},
      {"measurement": "LD50", "setting": "[2]", "value": "> 100", "unit": "mg/kg"}
    ]},
    {"molecule": "CCCCN(CCCC)C(=O)CC(C(=O)N(CCCC)CCCC)P(=O)(c1ccc(Cl)cc1)c1ccc(Cl)cc1", "note": "(centres unmarked) [Compound 5, N^1,N^1,N^4,N^4-tetrabutyldiamide of 2-[bis(4-chlorophenyl)-phosphinoyl]succinic acid]", "values": [
      {"measurement": "activity at 100 µM", "setting": "[1]", "value": "11.7 ± 7", "unit": "%"},
      {"measurement": "IC50", "setting": "[1]", "value": 4.8, "unit": "µM"},
      {"measurement": "LD50", "setting": "[2]", "value": "> 100", "unit": "mg/kg"}
    ]},
    {"molecule": "CCCCN(CCCC)C(=O)CC(C(=O)N(CCCC)CCCC)P(=O)(c1ccccc1C)c1ccccc1C", "note": "(centres unmarked) [Compound 2]", "values": [
      {"measurement": "^45Ca^2+ uptake (% vs. control)", "setting": "[1]", "value": "6.6±3.3", "unit": "%"},
      {"measurement": "IC50", "setting": "[1]", "value": 9.3, "unit": "µM"},
      {"measurement": "LD50", "setting": "[2]", "value": "> 100", "unit": "mg/kg"}
    ]},
    {"molecule": "CN(C)c1ccc(P(=O)(c2ccc(N(C)C)cc2)C(CC(=O)O)C(=O)O)cc1", "note": "(centres unmarked) [Compound 11, 2-[bis-(4-Dimethylaminophenyl)-phosphinoyl]succinic acid, reference compound]", "values": [
      {"measurement": "activity at 100 µM", "setting": "[1]", "value": "117 ± 3.9", "unit": "%"}
    ]},
    {"molecule": "CCCCN(CCCC)C(=O)CC(CP(=O)(c1cc(C)ccc1C)c1cc(C)ccc1C)C(=O)N(CCCC)CCCC", "note": "(centres unmarked) [Compound 9, N^1,N^1,N^4,N^4-tetrabutyldiamide of 2-[bis(2,5-dimethylphenyl)-phosphinoylmethyl]succinic acid]", "values": [
      {"measurement": "activity at 100 µM", "setting": "[1]", "value": "4.9 ± 4.9", "unit": "%"},
      {"measurement": "IC50", "setting": "[1]", "value": 5.1, "unit": "µM"},
      {"measurement": "LD50", "setting": "[2]", "value": "> 100", "unit": "mg/kg"}
    ]},
    {"molecule": "CCCCN(CCCC)C(=O)CP(=O)(c1ccccc1)c1ccccc1", "note": "[Compound 16, N,N-Dibutylamide of 2-(diphenylphosphinoyl)acetic acid, reference compound]", "values": [
      {"measurement": "activity at 100 µM", "setting": "[1]", "value": "96.2 ± 2.9", "unit": "%"}
    ]},
    {"molecule": "CCCCN(CCCC)C(=O)CC(CP(=O)(c1ccc(OC)cc1)c1ccc(OC)cc1)C(=O)N(CCCC)CCCC", "note": "(centres unmarked) [Compound 8, N^1,N^1,N^4,N^4-tetrabutyldiamide of 2-[bis(4-methoxyphenyl)-phosphinoylmethyl]succinic acid]", "values": [
      {"measurement": "^45Ca^2+ uptake (% vs. control)", "setting": "[1]", "value": 0, "unit": "%"},
      {"measurement": "IC50", "setting": "[1]", "value": 15.5, "unit": "µM"},
      {"measurement": "LD50", "setting": "[2]", "value": "> 100", "unit": "mg/kg"}
    ]},
    {"molecule": "CCP(=O)(CC)C(CC(=O)O)C(=O)O", "note": "(centres unmarked) [Compound 13, 2-(Diethylphosphinoyl)succinic acid, reference compound]", "values": [
      {"measurement": "activity at 100 µM", "setting": "[1]", "value": "120 ± 17.3", "unit": "%"}
    ]},
    {"molecule": "CCCCN(CCCC)C(=O)CC(C(=O)N(CCCC)CCCC)P(=O)(c1ccccc1)c1ccccc1", "note": "(centres unmarked) [Compound 1, N^1,N^1,N^4,N^4-tetrabutyldiamide of 2-(diphenylphosphinoyl)succinic acid]", "values": [
      {"measurement": "^45Ca^2+ uptake (% vs. control)", "setting": "[1]", "value": 0, "unit": "%"},
      {"measurement": "IC50", "setting": "[1]", "value": 14.1, "unit": "µM"},
      {"measurement": "LD50", "setting": "[2]", "value": "> 100", "unit": "mg/kg"}
    ]},
    {"molecule": "CCN(CC)CC(C(=O)N(CC)CC)P(=O)(c1ccccc1)c1ccccc1", "note": "(centres unmarked) [Compound 18, N,N-Diethylamide of 2-(diphenylphosphinoyl)-3-(diethylamino)propionic acid, reference compound]", "values": [
      {"measurement": "activity at 100 µM", "setting": "[1]", "value": 97.4, "unit": "%"}
    ]},
    {"molecule": "CCCCN(CCCC)C(=O)CC(C(=O)N(CCCC)CCCC)P(=O)(c1ccc(N(C)C)cc1)c1ccc(N(C)C)cc1", "note": "(centres unmarked) [Compound 4, N^1,N^1,N^4,N^4-tetrabutyldiamide of 2-[bis(4-dimethylaminophenyl)-phosphinoyl]succinic acid]", "values": [
      {"measurement": "activity at 100 µM", "setting": "[1]", "value": 0, "unit": "%"},
      {"measurement": "IC50", "setting": "[1]", "value": 7.9, "unit": "µM"},
      {"measurement": "LD50", "setting": "[2]", "value": "> 100", "unit": "mg/kg"}
    ]},
    {"molecule": "CCN(CC)C(=O)CC(CP(=O)(c1ccccc1)c1ccccc1)C(=O)N(CC)CC", "note": "(centres unmarked) [Compound 10, N^1,N^1,N^4,N^4-tetraethyldiamide of 2-(diphenylphosphinoylmetyl)succinic acid]", "values": [
      {"measurement": "activity at 100 µM", "setting": "[1]", "value": "63.8 ± 12", "unit": "%"},
      {"measurement": "LD50", "setting": "[2]", "value": "> 100", "unit": "mg/kg"}
    ]},
    {"molecule": "CCCCN(CCCC)C(=O)CC(C(=O)N(CCCC)CCCC)P(=O)(c1ccc(OC)cc1)c1ccc(OC)cc1", "note": "(centres unmarked) [Compound 6, N^1,N^1,N^4,N^4-tetrabutyldiamide of 2-[bis(4-methoxyphenyl)-phosphinoyl]succinic acid]", "values": [
      {"measurement": "activity at 100 µM", "setting": "[1]", "value": "7.2 ± 1.3", "unit": "%"},
      {"measurement": "IC50", "setting": "[1]", "value": 17, "unit": "µM"},
      {"measurement": "LD50", "setting": "[2]", "value": "> 100", "unit": "mg/kg"}
    ]},
    {"molecule": "Cc1ccc(C)c(P(=O)(c2cc(C)ccc2C)C(CC(=O)O)C(=O)O)c1", "note": "(centres unmarked) [Compound 12, 2-[bis-(2,5-Dimethylphenyl)-phosphinoyl]succinic acid, reference compound]", "values": [
      {"measurement": "activity at 100 µM", "setting": "[1]", "value": "97.9 ± 11.4", "unit": "%"}
    ]}
  ]
}
